According to patent US10633394B2, “Heterocyclic derivatives and use thereof” (C & C RESEARCH LABORATORIES, priority 2014, dated 2020):

How the values were obtained:
Format in all cases: cell-based
[1] = test system: MDA-MB-468; test: Cell growth inhibition assay (CellTiter-Glo), breast cancer cell line MDA-MB-468; details: Homo sapiens; MDA-MB-468 cells, 96 hours
Procedure: (§1) The inhibitory effects of the compounds of the present invention against the growth of cancer cells were evaluated as shown below. The cancer cell lines including stomach cancer cell line (NCI-N87) and breast cancer cell line (MDA-MB-468) were cultured under the protocol provided by each supplier. Each type of cells to be used in experiments was sub-cultured in a 96-well plate by counting the exact number of cells using Tali™ Image-based Cytometer (Life Technologies). In a 96-well plate, NCI-N87 was employed with 5,000 cells/well; and MDA-MB-468 was employed with 10,000 cells/well. The cells were treated with the compounds listed in Examples which were diluted in various concentrations. Upon completion of the compounds treatment, NCI-N87 cells were cultured at 37° C. under 5% CO2 for 96 hours, and MDA-MB-468 cells were cultured at 37° C. in air for 96 hours. Subsequently, the cells were observed under microscope and drug precipitation and particular findings were investigated and recorded. And then, the 96-well plate was placed at room temperature for 30 minutes, added with 20 μL/well of CellTiter-Glo solution (Cat No. G7573, Promega) and shaken for 10 minutes, followed by being subjected to the measurement using PHERAstar™ microplate reader (BMG LABTECH) according to the supplier's general luminometer protocol. Wells where only culture liquid added without cell plating were used as a negative control, whereas wells where culture liquid containing 0.1% DMSO instead of the compounds listed in Examples were used as a positive control.

[2] = test system: NCI-N87; test: Cell growth inhibition assay (CellTiter-Glo), stomach cancer cell line NCI-N87; details: Homo sapiens; NCI-N87 cells, 96 hours
Procedure: as §1

[3] = target: T1, STAT3 (Homo sapiens, UniProt P40763); test: STAT3 reporter gene (luciferase) assay in LNCaP stable cell line stimulated with IL-6; details: LNCaP stable cell line (pSTAT3-TA-luc), IL-6 10 ng/mL, 24 hours
T1 construct: plasmid pSTAT3-TA-luc), which contains a stably operating STAT3 promoter; endogenous in cells
Procedure: 1-1) Experiment on the Inhibition of STAT3 Activity
A human prostate cancer cell line (LNCaP stable cell line; plasmid pSTAT3-TA-luc), which contains a stably operating STAT3 promoter, was cultured in RPMI1640 medium (Cat No. 11875, Life Technologies) containing 10% fetal bovine serum (FBS) (Cat No. SH30396, Thermo Scientific) and 150 μg/mL G-418 solution (Cat No. 04 727 894 001, Roche). The reporter gene assay using LNCaP stable cell line was performed in RPMI1640 medium containing 3% DCC-FBS without G-418 solution. LNCaP stable cells were plated in two (2) white 96-well plates with 30,000 cells/50 μL in each well. The cells were cultured at 37° C., under 5% CO2 for 24 hours, and then treated with the compounds listed in Examples which were diluted in various concentrations. Subsequently, IL-6 was added to each well with a final concentration of 10 ng/mL. Upon completion of the treatment with the compounds and IL-6, the cells were cultured at 37° C., under 5% CO2 for 24 hours. The plates were observed under microscope and drug precipitation and particular findings were investigated and recorded.
The luciferase assay and the cell viability assay were performed respectively with one of the two plates. For the luciferase assay, the liquid media in the 96-well plate was removed, and then, 20 μL of passive cell lysis buffer was added to each well. After shaking the plate for 30 minutes, luciferase activities of each well were measured in a PHERAstar™ microplate reader (BMG LABTECH) using a luciferase assay system (Cat No. E1501, Promega). For the cell viability assay, the 96-well plate was placed at room temperature for 30 minutes, added with 20 μL/well of CellTiter-Glo solution (Cat No. G7573, Promega), and shaken for 10 minutes in order to measure cytotoxicity caused by the compounds listed in Examples with a PHERAstar™ microplate reader (BMG LABTECH). Wells without 0.1% DMSO and stimulation were used as a negative control and wells with 0.1% DMSO and stimulation were used as a positive control.
The results of evaluation on the inhibitory effect of the compounds listed in the Examples on the dimerization of STAT3 and STAT1 obtained via the STAT3 and STAT1 reporter gene assays are shown in Table 6 below.

T1 sequence (P40763 whole entry): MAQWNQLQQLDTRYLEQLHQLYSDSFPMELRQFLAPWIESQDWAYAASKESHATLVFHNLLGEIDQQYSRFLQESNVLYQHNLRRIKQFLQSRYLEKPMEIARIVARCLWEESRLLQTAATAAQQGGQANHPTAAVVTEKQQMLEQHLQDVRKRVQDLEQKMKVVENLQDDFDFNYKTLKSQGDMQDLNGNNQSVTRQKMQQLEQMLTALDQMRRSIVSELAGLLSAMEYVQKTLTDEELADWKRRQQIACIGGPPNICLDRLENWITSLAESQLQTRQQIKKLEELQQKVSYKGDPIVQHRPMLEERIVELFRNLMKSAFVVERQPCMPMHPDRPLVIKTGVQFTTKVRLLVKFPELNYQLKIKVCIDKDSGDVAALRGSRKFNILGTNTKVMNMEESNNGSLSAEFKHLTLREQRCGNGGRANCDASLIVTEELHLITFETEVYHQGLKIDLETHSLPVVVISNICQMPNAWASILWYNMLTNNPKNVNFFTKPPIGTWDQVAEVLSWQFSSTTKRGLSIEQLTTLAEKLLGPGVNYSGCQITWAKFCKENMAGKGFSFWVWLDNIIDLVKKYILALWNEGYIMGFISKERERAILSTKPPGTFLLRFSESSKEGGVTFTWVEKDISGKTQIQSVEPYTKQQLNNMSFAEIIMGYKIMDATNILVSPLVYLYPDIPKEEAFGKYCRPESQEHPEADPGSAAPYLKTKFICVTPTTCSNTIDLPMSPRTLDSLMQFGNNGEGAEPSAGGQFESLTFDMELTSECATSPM

CS(=O)(=O)C1CCOc2cc3sc(C(=O)Nc4cc(Cl)nc(Oc5cccc(C(F)(F)F)c5)c4)cc3cc21 (stereo not drawn) [Example 16, N-(2-chloro-6-(3-(trifluoromethyl)phenoxy)pyridin-4-yl)-4-(methylsulfonyl)-3,4-dihydro-2H-thieno[3,2-g]chromene-7-carboxamide]
IC50 [1]: 0.0039 µM
IC50 [2]: 0.021 µM
IC50 [3]: 0.0051 µM

CS(=O)(=O)C1CCOc2cc3sc(C(=O)Nc4cc(Cl)nc(Oc5ccc(C(F)(F)F)cc5)c4)cc3cc21 (stereo not drawn) [Example 17, N-(2-chloro-6-(4-(trifluoromethyl)phenoxy)pyridin-4-yl)-4-(methylsulfonyl)-3,4-dihydro-2H-thieno[3,2-g]chromene-7-carboxamide]
IC50 [1]: 0.0023 µM
IC50 [2]: 0.011 µM
IC50 [3]: 0.0039 µM

CS(=O)(=O)C1CCOc2cc3sc(C(=O)Nc4cc(Cl)nc(Oc5cc(Cl)cc(Cl)c5)c4)cc3cc21 (stereo not drawn) [Example 18, N-(2-chloro-6-(3,5-dichlorophenoxy)pyridin-4-yl)-4-(methylsulfonyl)-3,4-dihydro-2H-thieno[3,2-g]chromene-7-carboxamide]
IC50 [1]: 0.0043 µM
IC50 [2]: 0.02 µM
IC50 [3]: 0.015 µM

CS(=O)(=O)C1CCOc2cc3sc(C(=O)Nc4cc(Cl)nc(Oc5ccc(Cl)c(F)c5)c4)cc3cc21 (stereo not drawn) [Example 19, N-(2-chloro-6-(4-chloro-3-fluorophenoxy)pyridin-4-yl)-4-(methylsulfonyl)-3,4-dihydro-2H-thieno[3,2-g]chromene-7-carboxamide]
IC50 [1]: 0.0025 µM
IC50 [2]: 0.0061 µM
IC50 [3]: 0.0084 µM

Cc1cc(Oc2cc(NC(=O)c3cc4cc5c(cc4s3)OCCC5S(C)(=O)=O)cc(Cl)n2)ccc1Cl (stereo not drawn) [Example 20, N-(2-chloro-6-(4-chloro-3-methylphenoxy)pyridin-4-yl)-4-(methylsulfonyl)-3,4-dihydro-2H-thieno[3,2-g]chromene-7-carboxamide]
IC50 [1]: 0.0024 µM
IC50 [2]: 0.0094 µM
IC50 [3]: 0.01 µM

Cc1cc(Cl)ccc1Oc1cc(NC(=O)c2cc3cc4c(cc3s2)OCCC4S(C)(=O)=O)cc(Cl)n1 (stereo not drawn) [Example 21, N-(2-chloro-6-(4-chloro-2-methylphenoxy)pyridin-4-yl)-4-(methylsulfonyl)-3,4-dihydro-2H-thieno[3,2-g]chromene-7-carboxamide]
IC50 [1]: 0.0051 µM
IC50 [2]: 0.018 µM
IC50 [3]: 0.011 µM

COc1ccc(Oc2cc(NC(=O)c3cc4cc5c(cc4s3)OCCC5S(C)(=O)=O)cc(Cl)n2)cc1 (stereo not drawn) [Example 22, N-(2-chloro-6-(4-methoxyphenoxy)pyridin-4-yl)-4-(methylsulfonyl)-3,4-dihydro-2H-thieno[3,2-g]chromene-7-carboxamide]
IC50 [1]: 0.017 µM
IC50 [2]: 0.071 µM
IC50 [3]: 0.03 µM

CS(=O)(=O)C1CCOc2cc3sc(C(=O)Nc4cc(Cl)nc(Oc5ccc(Cl)cc5F)c4)cc3cc21 (stereo not drawn) [Example 23, N-(2-chloro-6-(4-chloro-2-fluorophenoxy)pyridin-4-yl)-4-(methylsulfonyl)-3,4-dihydro-2H-thieno[3,2-g]chromene-7-carboxamide]
IC50 [1]: 0.0028 µM
IC50 [2]: 0.0056 µM
IC50 [3]: 0.0063 µM

CS(=O)(=O)C1CCOc2cc3sc(C(=O)Nc4cc(Cl)nc(Oc5ccc(Cl)c(Cl)c5)c4)cc3cc21 (stereo not drawn) [Example 24, N-(2-chloro-6-(3,4-dichlorophenoxy)pyridin-4-yl)-4-(methylsulfonyl)-3,4-dihydro-2H-thieno[3,2-g]chromene-7-carboxamide]
IC50 [1]: 0.0024 µM
IC50 [2]: 0.0038 µM
IC50 [3]: 0.0062 µM

CS(=O)(=O)C1CCOc2cc3sc(C(=O)Nc4cc(Cl)nc(Oc5cccc(Cl)c5)c4)cc3cc21 (stereo not drawn) [Example 25, N-(2-chloro-6-(3-chlorophenoxy)pyridin-4-yl)-4-(methylsulfonyl)-3,4-dihydro-2H-thieno[3,2-g]chromene-7-carboxamide]
IC50 [1]: 0.0049 µM
IC50 [2]: 0.01 µM
IC50 [3]: 0.011 µM

CS(=O)(=O)C1CCOc2cc3sc(C(=O)Nc4cc(Cl)nc(Oc5ccc(F)cc5)c4)cc3cc21 (stereo not drawn) [Example 26, N-(2-chloro-6-(4-fluorophenoxy)pyridin-4-yl)-4-(methylsulfonyl)-3,4-dihydro-2H-thieno[3,2-g]chromene-7-carboxamide]
IC50 [1]: 0.0046 µM
IC50 [2]: 0.0072 µM
IC50 [3]: 0.0073 µM

CS(=O)(=O)C1CCOc2cc3sc(C(=O)Nc4cc(Cl)nc(Oc5ccc(F)c(Cl)c5)c4)cc3cc21 (stereo not drawn) [Example 27, N-(2-chloro-6-(3-chloro-4-fluorophenoxy)pyridin-4-yl)-4-(methylsulfonyl)-3,4-dihydro-2H-thieno[3,2-g]chromene-7-carboxamide]
IC50 [1]: 0.0029 µM
IC50 [2]: 0.0049 µM
IC50 [3]: 0.0078 µM

CS(=O)(=O)C1CCOc2cc3sc(C(=O)Nc4cc(Cl)nc(Oc5ccc(OC(F)(F)F)cc5)c4)cc3cc21 (stereo not drawn) [Example 28, N-(2-chloro-6-(4-(trifluoromethoxy)phenoxy)pyridin-4-yl)-4-(methylsulfonyl)-3,4-dihydro-2H-thieno[3,2-g]chromene-7-carboxamide]
IC50 [1]: 0.002 µM
IC50 [2]: 0.0056 µM
IC50 [3]: 0.0051 µM

CS(=O)(=O)C1CCOc2cc3sc(C(=O)Nc4cc(Cl)nc(Oc5cccc(OC(F)(F)F)c5)c4)cc3cc21 (stereo not drawn) [Example 29, N-(2-chloro-6-(3-(trifluoromethoxy)phenoxy)pyridin-4-yl)-4-(methylsulfonyl)-3,4-dihydro-2H-thieno[3,2-g]chromene-7-carboxamide]
IC50 [1]: 0.0029 µM
IC50 [2]: 0.0046 µM
IC50 [3]: 0.0059 µM

COc1cc(Cl)cc(Oc2cc(NC(=O)c3cc4cc5c(cc4s3)OCCC5S(C)(=O)=O)cc(Cl)n2)c1 (stereo not drawn) [Example 30, N-(2-chloro-6-(3-chloro-5-methoxyphenoxy)pyridin-4-yl)-4-(methylsulfonyl)-3,4-dihydro-2H-thieno[3,2-g]chromene-7-carboxamide]
IC50 [1]: 0.0085 µM
IC50 [2]: 0.025 µM
IC50 [3]: 0.02 µM

CS(=O)(=O)C1CCOc2cc3sc(C(=O)Nc4cc(Cl)nc(Oc5cc(F)cc(Cl)c5)c4)cc3cc21 (stereo not drawn) [Example 31, N-(2-chloro-6-(3-chloro-5-fluorophenoxy)pyridin-4-yl)-4-(methylsulfonyl)-3,4-dihydro-2H-thieno[3,2-g]chromene-7-carboxamide]
IC50 [1]: 0.0022 µM
IC50 [2]: 0.009 µM
IC50 [3]: 0.008 µM

COc1cc(F)cc(Oc2cc(NC(=O)c3cc4cc5c(cc4s3)OCCC5S(C)(=O)=O)cc(Cl)n2)c1 (stereo not drawn) [Example 32, N-(2-chloro-6-(3-fluoro-5-methoxyphenoxy)pyridin-4-yl)-4-(methylsulfonyl)-3,4-dihydro-2H-thieno[3,2-g]chromene-7-carboxamide]
IC50 [1]: 0.0089 µM
IC50 [2]: 0.031 µM
IC50 [3]: 0.016 µM

Cc1cccc(Oc2cc(NC(=O)c3cc4cc5c(cc4s3)OCCC5S(C)(=O)=O)cc(Cl)n2)c1 (stereo not drawn) [Example 33, N-(2-chloro-6-(m-tolyloxy)pyridin-4-yl)-4-(methylsulfonyl)-3,4-dihydro-2H-thieno[3,2-g]chromene-7-carboxamide]
IC50 [1]: 0.0093 µM
IC50 [2]: 0.024 µM
IC50 [3]: 0.0098 µM

CS(=O)(=O)C1CCOc2cc3sc(C(=O)Nc4cc(Cl)nc(Oc5ccc(F)c(F)c5)c4)cc3cc21 (stereo not drawn) [Example 34, N-(2-chloro-6-(3,4-difluorophenoxy)pyridin-4-yl)-4-(methylsulfonyl)-3,4-dihydro-2H-thieno[3,2-g]chromene-7-carboxamide]
IC50 [1]: 0.0023 µM
IC50 [2]: 0.0092 µM
IC50 [3]: 0.0064 µM
